Source: patent US20260159512A1, “BCAT2 INHIBITORS” (AGIOS PHARMACEUTICALS, INC., priority 2021, published 2026)

Assays:
Conditions in all cases: average where tested multiple times
BCAT2 [1] = biological target: T1, BCAT2 (Homo sapiens, UniProt O15382); assay: BCAT2 in vitro enzyme inhibition assay (resazurin/diaphorase-coupled fluorescence); assay type: biochemical
T1 sequence (O15382 28-392): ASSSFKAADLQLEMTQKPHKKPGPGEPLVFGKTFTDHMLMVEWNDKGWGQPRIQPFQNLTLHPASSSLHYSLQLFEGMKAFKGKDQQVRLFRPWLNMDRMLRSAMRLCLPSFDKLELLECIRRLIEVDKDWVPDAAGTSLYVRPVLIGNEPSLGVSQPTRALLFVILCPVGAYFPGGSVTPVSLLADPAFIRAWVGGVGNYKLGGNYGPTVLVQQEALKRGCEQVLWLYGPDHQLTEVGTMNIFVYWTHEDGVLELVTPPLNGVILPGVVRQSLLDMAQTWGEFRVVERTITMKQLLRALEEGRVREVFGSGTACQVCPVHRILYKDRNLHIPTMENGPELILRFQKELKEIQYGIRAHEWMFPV
Summary of the method: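 Coupled fluorescence readout: glutamate formed from L-leucine/α-ketoglutarate transamination drives GDH/NAD/diaphorase reduction of resazurin (Ex 540/Em 590). Human BCAT2 was first exposed 1 h at room temperature to compound, top final 100 μM in 3-fold, 10-point series; substrate reaction ran 1 h before SDS quench, in technical duplicate with DMSO max and enzyme-free min controls.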

hBCAT1 = biological target: T2, hBCAT1 (Homo sapiens, UniProt P54687); assay: BCAT1 in vitro enzyme inhibition assay (resazurin/diaphorase-coupled fluorescence); assay type: biochemical
T2 sequence (P54687 1-386): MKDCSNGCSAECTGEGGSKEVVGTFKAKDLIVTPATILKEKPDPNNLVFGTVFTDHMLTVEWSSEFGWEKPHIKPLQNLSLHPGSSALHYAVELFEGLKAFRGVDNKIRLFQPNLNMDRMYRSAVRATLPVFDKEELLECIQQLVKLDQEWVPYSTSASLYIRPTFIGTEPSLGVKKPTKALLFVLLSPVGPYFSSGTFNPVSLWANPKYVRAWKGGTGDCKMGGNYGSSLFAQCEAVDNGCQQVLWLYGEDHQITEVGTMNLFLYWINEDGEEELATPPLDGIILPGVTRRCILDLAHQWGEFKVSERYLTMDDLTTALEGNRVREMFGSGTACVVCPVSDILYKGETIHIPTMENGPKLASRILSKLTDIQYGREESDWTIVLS
Summary of the method: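 Ten-point, 3-fold compound series (top final 100 μM, delivered 1:50 from 50× DMSO stocks) tested against hBCAT1. Inhibition detected via diaphorase-coupled resazurin fluorescence, duplicate wells, with values from repeated runs averaged.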

BCAT2 [2] = biological target: T1, BCAT2; assay: BCAT2 in vitro cell inhibition using engineered A549 cells (KMV cell assay, 13C6-KMV by LC-MS/MS); assay type: cell-based; set-up: The result was an engineered A549 cell line that expressed endogenous BCAT2; endogenous in cells; host or cells: A549 cells with MUT and BCAT1 knocked out by CRISPR/CAS9; key to BCAT2 Cell Inhibition: A: less than or equal to 0.100 μM; B: greater than 0.100 and less than or equal to 0.500 μM; C: greater than 0.500 and less than or equal to 1.000 μM; d: greater than 1.000 μM; E: no fit

| Structure (SMILES) | IC50 (BCAT2 [1]) | IC50 (hBCAT1) | IC50 (BCAT2 [2]) | BCAT2 Cell Inhibition (BCAT2 [2]) |
| --- | --- | --- | --- | --- |
| O=C(N[C@H]1CCC[C@@H](n2c(-c3ccccc3F)nc3cnc(-c4ncn(C(F)F)n4)cc32)C1)c1ncc(Cl)s1 [Example 378, 5-chloro-N-((1S,3R)-3-(6-(1-(difluoromethyl)-1H-1,2,4-triazol-3-yl)-2-(2-fluorophenyl)-1H-imidazo[4,5-c]pyridin-1-yl)cyclohexyl)thiazole-2-carboxamide] | ≤ 100 nM | < 500 nM | ≤ 100 nM |  |
| CC1(Cc2nc3cnc(-c4nc[nH]n4)cc3n2[C@@H]2CCC[C@H](NC(=O)c3ncc(Cl)s3)C2)CC1 [Example 379, 5-chloro-N-((1S,3R)-3-(2-((1-methylcyclopropyl)methyl)-6-(1H-1,2,4-triazol-3-yl)-1H-imidazo[4,5-c]pyridin-1-yl)cyclohexyl)thiazole-2-carboxamide] | ≤ 100 nM | < 500 nM | ≤ 100 nM |  |
| CC(C)Cc1nc2cnc(-c3nnco3)cc2n1[C@@H]1CCC[C@H](NC(=O)c2ncc(Cl)s2)C1 [Example 380, 5-chloro-N-((1S,3R)-3-(2-isobutyl-6-(1,3,4-oxadiazol-2-yl)-1H-imidazo[4,5-c]pyridin-1-yl)cyclohexyl)thiazole-2-carboxamide] | 100 to 500 nM | > 5000 nM | > 1000 nM |  |
| CC(C)(C)Cc1nc2cnc(-c3ccccn3)cc2n1[C@@H]1CCC[C@H](NC(=O)c2ncc(Cl)s2)C1 [Example 381, 5-chloro-N-((1S,3R)-3-(2-neopentyl-6-(pyridin-2-yl)-1H-imidazo[4,5-c]pyridin-1-yl)cyclohexyl)thiazole-2-carboxamide] | ≤ 100 nM | 1000 to 5000 nM | 100 to 500 nM |  |
| CC(C)Cc1nc2cnc(-c3ncccn3)cc2n1C1CCCC(NC(=O)c2ncc(Cl)s2)C1O (stereo not drawn) [Example 383, 5-chloro-N-(2-hydroxy-3-(2-isobutyl-6-(pyrimidin-2-yl)-1H-imidazo[4,5-c]pyridin-1-yl)cyclohexyl)thiazole-2-carboxamide] | ≤ 100 nM | < 500 nM | 100 to 500 nM |  |
| CC(C)Cc1nc2cnc(-c3nccs3)cc2n1C1CCCC(NC(=O)c2ncc(Cl)s2)C1O (stereo not drawn) [Example 386, 5-chloro-N-(2-hydroxy-3-(2-isobutyl-6-(thiazol-2-yl)-1H-imidazo[4,5-c]pyridin-1-yl)cyclohexyl)thiazole-2-carboxamide] | ≤ 100 nM | < 500 nM | ≤ 100 nM |  |
| CC(C)(C)Cc1nc2cnc(-n3nccn3)cc2n1[C@@H]1CCC[C@H](NC(=O)c2ccc(Cl)s2)[C@H]1O [Example 387, 5-chloro-N-((1S,2R,3R)-2-hydroxy-3-(2-neopentyl-6-(2H-1,2,3-triazol-2-yl)-1H-imidazo[4,5-c]pyridin-1-yl)cyclohexyl)thiophene-2-carboxamide] | ≤ 100 nM | < 500 nM | ≤ 100 nM |  |
| CC(C)(C)Cc1nc2cnc(-c3ccccn3)cc2n1[C@@H]1CCC[C@H](NC(=O)c2ncc(Cl)s2)[C@H]1O [Example 389, 5-chloro-N-((1S,2R,3R)-2-hydroxy-3-(2-neopentyl-6-(pyridin-2-yl)-1H-imidazo[4,5-c]pyridin-1-yl)cyclohexyl)thiazole-2-carboxamide] | ≤ 100 nM | < 500 nM | ≤ 100 nM |  |
| CC(C)Cc1nc2cnc(-c3cccc(C#N)n3)cc2n1[C@@H]1CCC[C@H](NC(=O)c2ncc(Cl)s2)[C@H]1O [Example 392, 5-chloro-N-((1S,2R,3R)-3-(6-(6-cyanopyridin-2-yl)-2-isobutyl-1H-imidazo[4,5-c]pyridin-1-yl)-2-hydroxycyclohexyl)thiazole-2-carboxamide] | 100 to 500 nM | 1000 to 5000 nM | > 1000 nM |  |
| CC(C)Cc1nc2cnc(-n3nccn3)cc2n1[C@@H]1CCC[C@H](NC(=O)c2ccc(Cl)s2)[C@H]1O [Example 393, 5-chloro-N-((1S,2R,3R)-2-hydroxy-3-(2-isobutyl-6-(2H-1,2,3-triazol-2-yl)-1H-imidazo[4,5-c]pyridin-1-yl)cyclohexyl)thiophene-2-carboxamide] | ≤ 100 nM | < 500 nM | ≤ 100 nM |  |

More lines, now with the values ahead:

| IC50 (BCAT2 [1]) | IC50 (hBCAT1) | IC50 (BCAT2 [2]) | BCAT2 Cell Inhibition (BCAT2 [2]) | Structure (SMILES) |
| --- | --- | --- | --- | --- |
| ≤ 100 nM | < 500 nM | ≤ 100 nM |  | N#CCc1ccccc1-c1nc2cnc(-c3nc[nH]n3)cc2n1[C@@H]1CCC[C@H](NC(=O)c2ncc(Cl)s2)C1 [Example 355, 5-chloro-N-((1S,3R)-3-(2-(2-(cyanomethyl)phenyl)-6-(1H-1,2,4-triazol-3-yl)-1H-imidazo[4,5-c]pyridin-1-yl)cyclohexyl)thiazole-2-carboxamide] |
| ≤ 100 nM | 500 to 1000 nM | ≤ 100 nM |  | N#Cc1ccccc1-c1nc2cnc(-c3nc[nH]n3)cc2n1[C@@H]1CCC[C@H](NC(=O)c2ccc(Cl)s2)C1 [Example 356, 5-chloro-N-((1S,3R)-3-(2-(2-cyanophenyl)-6-(1H-1,2,4-triazol-3-yl)-1H-imidazo[4,5-c]pyridin-1-yl)cyclohexyl)thiophene-2-carboxamide] |
| ≤ 100 nM | 500 to 1000 nM | 100 to 500 nM |  | CC(C)Cc1nc2cnc(-c3ncn(C)n3)cc2n1[C@@H]1CCC[C@H](NC(=O)c2ncc(Cl)s2)C1 [Example 358, 5-chloro-N-((1S,3R)-3-(2-isobutyl-6-(1-methyl-1H-1,2,4-triazol-3-yl)-1H-imidazo[4,5-c]pyridin-1-yl)cyclohexyl)thiazole-2-carboxamide] |
| ≤ 100 nM | < 500 nM | ≤ 100 nM |  | O=C(N[C@H]1CCC[C@@H](n2c(-c3ccccc3O)nc3cnc(-n4nccn4)cc32)C1)c1ncc(Cl)s1 [Example 363, 5-chloro-N-((1S,3R)-3-(2-(2-hydroxyphenyl)-6-(2H-1,2,3-triazol-2-yl)-1H-imidazo[4,5-c]pyridin-1-yl)cyclohexyl)thiazole-2-carboxamide] |
| ≤ 100 nM | < 500 nM | ≤ 100 nM |  | O=C(N[C@H]1CCCN(n2c(-c3ccccc3F)nc3cnc(-c4nc[nH]n4)cc32)C1)c1ncc(Cl)s1 [Example 364, (S)-5-chloro-N-(1-(2-(2-fluorophenyl)-6-(1H-1,2,4-triazol-3-yl)-1H-imidazo[4,5-c]pyridin-1-yl)piperidin-3-yl)thiazole-2-carboxamide] |
| ≤ 100 nM | 1000 to 5000 nM | > 1000 nM |  | N#Cc1cccc(-c2nc3cnc(-c4nc[nH]n4)cc3n2[C@@H]2CCC[C@H](NC(=O)c3ccc(Cl)s3)C2)c1F [Example 365, 5-chloro-N-((1S,3R)-3-(2-(3-cyano-2-fluorophenyl)-6-(1H-1,2,4-triazol-3-yl)-1H-imidazo[4,5-c]pyridin-1-yl)cyclohexyl)thiophene-2-carboxamide] |
| ≤ 100 nM | 500 to 1000 nM | > 1000 nM |  | NCc1ccccc1-c1nc2cnc(-c3nc[nH]n3)cc2n1[C@@H]1CCC[C@H](NC(=O)c2ncc(Cl)s2)C1 [Example 366, N-((1S,3R)-3-(2-(2-(aminomethyl)phenyl)-6-(1H-1,2,4-triazol-3-yl)-1H-imidazo[4,5-c]pyridin-1-yl)cyclohexyl)-5-chlorothiazole-2-carboxamide] |
| ≤ 100 nM | < 500 nM |  | E | O=C(N[C@H]1CCC[C@@H](n2c(-c3ccccc3OC(F)F)nc3cnc(-c4nc[nH]n4)cc32)C1)c1ncc(Cl)s1 [Example 367, 5-chloro-N-((1S,3R)-3-(2-(2-(difluoromethoxy)phenyl)-6-(1H-1,2,4-triazol-3-yl)-1H-imidazo[4,5-c]pyridin-1-yl)cyclohexyl)thiazole-2-carboxamide] |
| ≤ 100 nM | < 500 nM | ≤ 100 nM |  | CC(C)Cc1nc2cnc(-c3nc[nH]n3)cc2n1[C@@H]1CCCC[C@H](NC(=O)c2ncc(Cl)s2)C1 [Example 374, 5-chloro-N-((1S,3R)-3-(2-isobutyl-6-(1H-1,2,4-triazol-3-yl)-1H-imidazo[4,5-c]pyridin-1-yl)cycloheptyl)thiazole-2-carboxamide] |
